Reference: US10723777B2, “Peptide having anti-obesity and anti-diabetes efficacy and use thereof” (CAREGEN CO., LTD., priority 2016, dated 2020)

Key:
[1] = test system: DB/DB diabetes-induced mice; experiment: Blood sugar levels over time in DB/DB diabetes-induced mice administered with the peptides; type: in vivo, mouse; conditions: for blood sugar levels: High-Fat Diabetes DB/DB mice; for blood sugar levels (course over time): DB/DB mice
Experimental: In addition, after starvation for 16 hours, DB/DB diabetes-induced mice were fed for 30 minutes and then administered with the peptides. Blood sugar levels were measured over times and the results are shown in FIGS. 22 and 23 and Tables 7 and 8.

[2] = test system: adipogenic markers (PPARγ, ACC, and aP2) in 3T3-L1 cells; experiment: Suppression of expression of genes involved in adipogenesis (RT-PCR); type: cell-based, mouse; conditions: TNFα 100 ng/ml; for expression levels of the adipogenic marker aP2 (gene): peptides/peptide complexes 0.1, 1, 10 μg/ml
Experimental: 3T3-L1 cells (pre-adipocytes) were seeded at a density of 3×10^5 cells/well into 6-well plates. After incubating for 24 hours, the cells were incubated for 14 days in a 37° C. incubator after treatment with various concentrations (0.1, 1, and 10 μg/ml) of the peptides. Thereafter, the cells were harvested and treated with an RNA extraction solution (Easy Blue, Intron) to prepare for RNA from which cDNA was then synthesized using an RT premix (Intron). PCR was performed using primers for the adipogenic markers (PPARγ, ACC, and aP2), and a PCR premix (Intron). Next, the PCR products were each loaded in an amount of 5 μl into a 1% agarose gel and electrophoresis was performed, and then bands were identified in a Gel-Doc.
Target-specific primer sequences for PCR of adipogenic markers are as follows: […]

[3] = test system: pre-adipocytes 3T3-L1 cells; experiment: Inhibition of fat accumulation using pre-adipocyte (Oil Red O staining); type: cell-based, mouse; conditions: 3T3-L1, differentiation induced 10 days, various concentrations
Experimental: The pre-adipocytes 3T3-L1 cells were incubated until becoming confluent, and then incubated for two days after treatment with various concentrations of the peptides in a differentiation medium containing 10 μg/ml insulin, 0.1 μM dexamethasone, and 0.5 μM IBMX. Thereafter, the medium was exchanged every two days to a medium containing 10 μg/ml insulin. After differentiation was induced for 10 days, the generation of droplet in the cells was confirmed by Oil Red 0 staining.
The prepared 3T3-L1 pre-adipocytes were washed with PBS, fixed with 3.7% formalin for 1 hour, were washed with 60% isopropanol, and then were dyed with Oil Red O solution at room temperature for 20 minutes. After completion of dyeing, the Oil Red O solution was removed, the cells were washed three times with distilled water, and then the dyed cells were observed under a phase contrast microscope. For quantitative analysis, fats were extracted from the cells using 100% isopropanol, and the cells were transferred in an amount of 200 μl/well into 96-well plates and measured for optical density at 500 nm using an ELISA reader.

[4] = test system: DIO C57BL/6 mouse fed high-fat diet; experiment: Adipogenesis-suppressive and lipolysis-promotive effect in DIO (diets induced obesity) mice; type: in vivo; conditions: micro-CT; HDF (10 weeks) + treatment (8 weeks)
[5] = test system: DIO C57BL/6 mouse fed high-fat diet; experiment: as above; type: in vivo
Experimental: Obesity-induced Models DIO (diets induced obesity), which had become obese by feeding high-fat diets to normal C57BL/6 mouse, were used for the anti-obesity experiment in which 5 μg/ml of TNFα was used as a positive control drug. For a control, a general diet, not a high-fat diet, was fed. In this experiment, a high-fat diet was fed for 12 weeks, while the peptide complexes or the positive control drug were applied. During the experiment, the weight loss was confirmed.
TNFα and the anti-obesity active compounds were intraperitoneally injected at 3:00 to 4:00 pm every week for 12 weeks. Body weights and dietary amounts were measured just before the first drug injection, and then measured at weekly intervals.
Blood samples were collected from the tail vein after the end of the drug injection experiment, and then blood sugar levels were measured using Accu-Check Active (Roche) and cholesterol levels were analyzed using Cholesterol calculation Kit (BioVision).
Adipose tissues are classified into white fat and brown fat depending on the color and are classified into subcutaneous fat, abdominal fat, mesentery fat (visceral fat), and epididymal fat depending on the site. After dissection, each fat was extracted. For histological examination, the fats were fixed with 10% neutral buffered formalin, embedded in paraffin blocks, cut into […] sections, and dyed with hematoxylin and eosin.
To analyze the degree of phosphorylation of the lipolytic factor HSL, fluorescent staining was carried out using an anti-pHSL antibody. The tissue samples were prepared, mounted on glycerine jell mounting media, and covered with a cover glass. The tissues were taken with a digital camera built into a microscope (Nikon, TS100) and images were observed under the microscope.

[6] = peptide complexes 0.1, 1, 10 μg/ml

What does the source list for KGACTGWMA (Peptide 2) [SEQ ID NO: 2]?
blood sugar levels ([1]; 30 minutes): 219 mg/dL; blood sugar levels ([1]; 60 minutes): 231 mg/dL; blood sugar levels ([1]; 120 minutes): 174 mg/dL; blood sugar levels ([1]; 240 minutes): 158 mg/dL; blood sugar levels ([1]; 300 minutes): 152 mg/dL; blood sugar levels (course over time) [1]: lowered in a time-dependent manner; blood sugar levels ([1]; Fasting): 181 mg/dL; expression levels of the adipogenic marker aP2 (gene) [2]: decreased; degree of fat accumulation in the cells (Oil Red O staining) [3]: decreased

What does the source list for ACYLPHPWFC (Peptide 4) [SEQ ID NO: 4]?
blood sugar levels ([1]; 30 minutes): 249 mg/dL; blood sugar levels ([1]; 60 minutes): 229 mg/dL; blood sugar levels ([1]; 120 minutes): 215 mg/dL; blood sugar levels ([1]; 240 minutes): 180 mg/dL; blood sugar levels ([1]; 300 minutes): 165 mg/dL; blood sugar levels (course over time) [1]: lowered in a time-dependent manner; blood sugar levels ([1]; Fasting): 222 mg/dL; expression levels of the adipogenic marker aP2 (gene) [2]: decreased; degree of fat accumulation in the cells (Oil Red O staining) [3]: decreased

How did the “Total Fat” value [4] turn out when TNFα was run?
The value was 4165.80 mm^3.

What about the “Total Volume” value [4] of the same substance?
The value was 8240.67 mm^3.

And the “Visceral Fat” value [4]?
The value was 2833.72 mm^3.

What about the body weight ([5]; Week 0, high-fat diet) of the same substance?
Its body weight is 22.41 g.

What about the “body weight in percentage” value ([5]; Week 0, high-fat diet) of the same substance?
Its value is 100%.

What about the body weight ([5]; Week 1, high-fat diet) of the same substance?
Its body weight is 23.00 g.

And the “body weight in percentage” value ([5]; Week 1, high-fat diet)?
The value was 102.6%.

And the body weight ([5]; Week 2, high-fat diet)?
The body weight was 26.12 g.

And the “body weight in percentage” value ([5]; Week 2, high-fat diet)?
Its value is 116.6%.

What about the body weight ([5]; Week 3, high-fat diet) of the same substance?
The body weight was 27.45 g.

And the “body weight in percentage” value ([5]; Week 3, high-fat diet)?
Its value is 122.5%.

What about the body weight ([5]; Week 4, high-fat diet) of the same substance?
The body weight was 30.51 g.

What about the “body weight in percentage” value ([5]; Week 4, high-fat diet) of the same substance?
The value was 136.1%.

And the body weight ([5]; Week 5, high-fat diet)?
The body weight was 32.76 g.

And the “body weight in percentage” value ([5]; Week 5, high-fat diet)?
The value was 146.2%.

What about the body weight ([5]; Week 6, high-fat diet) of the same substance?
The body weight was 33.49 g.

And the “body weight in percentage” value ([5]; Week 6, high-fat diet)?
Its value is 149.4%.

And the body weight ([5]; Week 7, high-fat diet)?
The body weight was 35.14 g.

What about the “body weight in percentage” value ([5]; Week 7, high-fat diet) of the same substance?
Its value is 156.8%.

And the body weight ([5]; Week 8, high-fat diet)?
Its body weight is 37.15 g.

And the “body weight in percentage” value ([5]; Week 8, high-fat diet)?
Its value is 165.8%.

What about the body weight ([5]; Week 9, high-fat diet) of the same substance?
Its body weight is 38.97 g.

And the “body weight in percentage” value ([5]; Week 9, high-fat diet)?
The value was 173.9%.

And the body weight ([5]; Week 10, high-fat diet)?
The body weight was 40.39 g.

What about the “body weight in percentage” value ([5]; Week 10, high-fat diet) of the same substance?
The value was 180.2%.

What about the body weight ([5]; Week 11, high-fat diet) of the same substance?
Its body weight is 41.35 g.

What about the “body weight in percentage” value ([5]; Week 11, high-fat diet) of the same substance?
The value was 184.5%.

And the body weight ([5]; Week 12, high-fat diet)?
Its body weight is 43.91 g.

What about the “body weight in percentage” value ([5]; Week 12, high-fat diet) of the same substance?
The value was 195.9%.

And the “Subcutaneous Fat” value ([5]; micro-CT, HDF (10 weeks) + treatment (8 weeks))?
The value was 1332.08 mm^3.

And the “expression levels of the adipogenic marker ACC (gene)” value [2, 6]?
Its value is “decreased”.

And the “expression levels of the adipogenic marker PPARγ (gene)” value [2, 6]?
The value was “decreased”.

And the “expression levels of the adipogenic marker aP2 (gene)” value [2]?
Its value is “decreased”.
